# In publication PMC8778866, “Oral Bioavailability Enhancement of Melanin Concentrating Hormone, Development and In Vitro Pharmaceutical Assessment of Novel Delivery Systems” (Pharmaceutics, 2021):
# What was measured:
# Caco-2 cells = assay: MTT cell viability assay; assay type: cell-based, human; conditions: Caco-2, MTT, n = 10
# Experimental: A Caco-2 immortalized human adenocarcinoma cell line was purchased from The European Collection of Cell Cultures (ECACC). Cells were seeded and maintained in plastic cell culture flasks in Dulbecco's Modified […] medium (DMEM Sigma-Aldrich Ltd., Budapest, Hungary). Cell culturing media was supplemented with 2 mM L-glutamine, 100 mg/L gentamycin (Sigma-Aldrich Ltd., Budapest, Hungary) and 10% heat inactivated fetal bovine serum (FBS) (Sigma-Aldrich Ltd., Budapest, Hungary). Cells were stored in incubators at 37 °C in a 5% CO2 atmosphere. The colon epithelial Caco-2 cell line forms a single cell layer with well-defined tight junctions. Caco-2 cell viability was evaluated using the MTT method. Cells were harvested and seeded at a density of 10^4 cells/well on flat-bottom 96-well tissue culture plates. Cells were allowed to grow for 7 days under the abovementioned conditions. For the viability measurements, the DMEM was removed. […] Mitochondrial activity of the cells was determined after 3 h incubation with MTT at the concentration of 0.50 mg/mL. […] The absorbance of dissolved formazan crystals correlates with the ratio of the living cells. Absorbance was measured with a FLUOstar OPTIMA Micro-plate Reader (BMG LABTECH, Offenburg, Germany) at 570 nm against a 690 nm reference.
# pepsin [1] = biological target: T1, pepsin (Sus scrofa, UniProt P00791); assay: Enzymatic stability in simulated gastric fluid (SGF) with pepsin; assay type: in vitro ADME, porcine; conditions: SGF with pepsin, 37 °C, 100 rpm, 1 h; RIA; n = 3
# T1 construct: purchased Sigma-Aldrich; host or cells: porcine gastric mucosa
# T1 sequence (P00791 60-385): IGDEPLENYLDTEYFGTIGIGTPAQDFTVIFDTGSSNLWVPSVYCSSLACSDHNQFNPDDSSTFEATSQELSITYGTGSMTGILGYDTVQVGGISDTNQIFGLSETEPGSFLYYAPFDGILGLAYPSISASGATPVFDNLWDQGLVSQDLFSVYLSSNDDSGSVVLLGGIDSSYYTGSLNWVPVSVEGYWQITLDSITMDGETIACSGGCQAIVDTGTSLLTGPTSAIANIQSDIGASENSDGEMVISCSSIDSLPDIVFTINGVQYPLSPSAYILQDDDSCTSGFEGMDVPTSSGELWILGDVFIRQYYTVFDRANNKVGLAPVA
# Experimental: (§1) Enzymatic degradation in the presence of proetolytic enzymes pepsin and pancreatin was investigated. Peptide-loaded particles were added to 100 mL of artificial gastric fluid (simulated gastric fluid—SGF) with pepsin, or artificial intestinal fluid (simulated intestinal fluid—SIF) with pancreatin and incubated at 37 °C under moderate stirring at 100 rpm. SGF and SIF were prepared as per European Pharmacopoeia specifications. A total of 1000 µL samples were collected at determined time intervals for 120 min, and an equal volume of ice-cold reagent was added to stop the enzymatic reaction (0.10 M NaOH for SGF and 0.10 M HCl for SIF). Samples were analyzed by radioimmunoassay.
# pepsin [2] = test system: T2, pepsin; assay: as above; assay type: in vitro ADME, porcine; conditions: pig, simulated gastric fluid (SGF) with pepsin; SGF with pepsin (Ph. Eur.), 37 °C, 100 rpm, 30 min; RIA; mean ± SD, n = 3; read-out: active MCH measured after incubation in SGF
# T2 construct: purchased Sigma-Aldrich; host or cells: porcine gastric mucosa
# Experimental: as §1
# pancreatin = assay: Enzymatic stability in simulated intestinal fluid (SIF) with pancreatin; assay type: in vitro ADME, porcine; conditions: 37 °C, 100 rpm, RIA, mean ± SD, n = 3
# Experimental: as §1
structure (smiles),measurement,setting,value
"CCOCCOCCO [Transcutol HP, Diethylene glycol monoethyl ether]",IC50 (cytotoxicity),"Caco-2 cells; 30 min incubation with sample, 3 h MTT 0.50 mg/mL, absorbance 570 nm",0.37 v/v%
"O.O.[Ca+2].[Cl-].[Cl-] [calcium-chloride dihydrate, Calcium chloride dihydrate]",toxicity in MTT assay (in words),"Caco-2 cells; 30 min incubation, also at higher concentrations",did not show relevant toxicity
"CSCC[C@@H]1NC(=O)[C@@H](NC(=O)[C@H](CCCNC(=N)N)NC(=O)[C@H](CC(C)C)NC(=O)[C@H](CCSC)NC(=O)[C@H](CC(=O)O)NC(=O)[C@H](Cc2ccccc2)NC(=O)[C@@H](N)CC(=O)O)CSSC[C@@H](C(=O)N[C@@H](Cc2c[nH]c3ccccc23)C(=O)N[C@@H](CCC(N)=O)C(=O)N[C@H](C(=O)O)C(C)C)NC(=O)[C@@H]2CCCN2C(=O)[C@H](CCCNC(=N)N)NC(=O)[C@H](Cc2ccc(O)cc2)NC(=O)[C@H](C(C)C)NC(=O)[C@H](CCCNC(=N)N)NC(=O)CNC(=O)[C@H](CC(C)C)NC1=O [MCH, Melanin concentrating hormone]",degradation after incubation in SGF,pepsin [1],completely degraded
same,remaining at 0.5 h,pepsin [2],3 ± 0.5%
same,MCH recovery after incubation with SIF,"pancreatin; SIF with pancreatin, 2 h",1.00 ± 0.50%
same,remaining at 0.5 h,"pancreatin; pig, simulated intestinal fluid (SIF) with pancreatin, SIF with pancreatin (Ph. Eur.), 30 min, read-out: active MCH measured after incubation in SIF",8 ± 0.5%
